Assay results taken from publication PMC8815882, “Screening the pandemic response box identified benzimidazole carbamates, Olorofim and ravuconazole as promising drug candidates for the treatment of eumycetoma” (PLoS Neglected Tropical Diseases, 2022).
Read-outs that look alike come from different tables or passages of the source.

System: M. mycetomatis genome strain MM55
Assay: CLSI M38-A2 based in vitro susceptibility screening (XTT or resazurin), growth at fixed concentration
Format: cell-based, Madurella mycetomatis
Conditions: Madurella mycetomatis; for Percent fungal survival at 100 µM: replicate 2, read-out: Percentage survival at 100um, 100 uM A (second replicate column)
[1] = mean of replicates, MM55, read-out: Percentage survival at 25um, 25 uM mean
[2] = replicate A, MM55, read-out: Percentage survival at 25um, 25 um A
[3] = replicate B, MM55, read-out: Percentage survival at 25um, 25 uM B
[4] = replicate C, MM55, read-out: Percentage survival at 25um, 25 uM C
[5] = mean of replicates, MM55, read-out: Percentage survival at 100um, 100 uM mean
[6] = replicate 1, MM55, read-out: Percentage survival at 100um, 100 uM A
[7] = replicate 2, MM55, read-out: Percentage survival at 100um, 100 uM A
[8] = replicate 3, MM55, read-out: Percentage survival at 100um, 100 uM A
[9] = mean of three replicates, read-out: Percentage survival at 25um, 25 uM mean
[10] = replicate A, read-out: Percentage survival at 25um, 25 um A
[11] = replicate B, read-out: Percentage survival at 25um, 25 uM B
[12] = replicate C, read-out: Percentage survival at 25um, 25 uM C
[13] = first replicate column, read-out: Percentage survival at 100um, 100 uM A
[14] = mean of three replicates, read-out: Percentage survival at 100um, 100 uM mean
[15] = second replicate column, read-out: Percentage survival at 100um, 100 uM A
[16] = third replicate column, read-out: Percentage survival at 100um, 100 uM A
[17] = replicate 1, read-out: Percentage survival at 100um, 100 uM A (first replicate column)
[18] = replicate 3, read-out: Percentage survival at 100um, 100 uM A (third replicate column)

Structure (SMILES) | activity at 25 µM [1] [%] | activity at 25 µM [2] [%] | activity at 25 µM [3] [%] | activity at 25 µM [4] [%] | activity at 100 µM [5] [%] | activity at 100 µM [6] [%] | activity at 100 µM [7] [%] | activity at 100 µM [8] [%] | activity at 25 µM [9] [%] | activity at 25 µM [10] [%] | activity at 25 µM [11] [%] | activity at 25 µM [12] [%] | activity at 100 µM [13] [%] | activity at 100 µM [14] [%] | activity at 100 µM [15] [%] | activity at 100 µM [16] [%] | further results
CN(C)CCCNC(=O)c1ccc(-c2cc(O)c3ncccc3c2)cc1 [MMV1580488] | 54.3 | 72 | 76.2 | 14.8 | 9.5 | 10.5 | 5.72 | 12.3 |  |  |  |  |  |  |  |  | 
CC[N+]1(C/C2=C/CCCCCC2)CCC(NC(=O)C2c3cc(Cl)ccc3Oc3ccc(Cl)cc32)CC1 (centres unmarked) [MMV1580489] |  |  |  |  |  |  |  |  | 93.8 | 90.3 | 102 | 88.6 | -9.19 | -2.01 | -1.42 | 4.58 | 
c1cnc(NCc2ccc(CNc3ncccn3)cc2)nc1 [MMV1580490] | 71 | 53.2 | 76.7 | 83.1 | 66.3 | 67.3 | 32.6 | 98.8 |  |  |  |  |  |  |  |  | 
CCOC(=O)/C=C/[C@H](C[C@@H]1CCNC1=O)NC(=O)[C@@H](CC(=O)[C@@H](NC(=O)c1cc(C)on1)C(C)C)Cc1ccc(F)cc1 [MMV1580491] |  |  |  |  |  |  |  |  | 96.1 | 96.2 | 112 | 79.9 |  | 93.9 |  |  | activity at 100 µM [17]: 99.7%; Percent fungal survival at 100 µM: 86.7%; activity at 100 µM [18]: 95.4%
O=C(/C=C\n1cnc(-c2cc(C(F)(F)F)cc(C(F)(F)F)c2)n1)NNc1ccccn1 [MMV1580493] |  |  |  |  |  |  |  |  |  | 79.7 | 83.9 | 40.3 |  |  |  |  | activity at 25 µM (mean of replicates, read-out: Percentage survival at 25um, 25 uM mean): 67.9%; activity at 100 µM (mean of replicates, read-out: Percentage survival at 100um, 100 uM mean): 77.3%; activity at 100 µM [17]: 119%; Percent fungal survival at 100 µM: 80%; activity at 100 µM [18]: 32.4%
CCC[C@H](NC(=O)[C@@H]1[C@H]2CCC[C@H]2CN1C(=O)[C@@H](NC(=O)[C@@H](NC(=O)c1cnccn1)C1CCCCC1)C(C)(C)C)C(=O)C(=O)NC1CC1 [MMV1580494] | 85.9 | 89.9 | 95.2 | 72.5 | 89.5 | 96.1 | 101 | 71.1 |  |  |  |  |  |  |  |  | 
Nc1cnn(C2OC(CO)C(O)C2O)c(=O)n1 (centres unmarked) [MMV1580495] |  |  |  |  |  |  |  |  | 87.3 | 82 | 95.9 | 84 | 88.8 | 82 | 84.2 | 72.9 | 
NC(=S)N/N=C/c1ncccc1N [MMV1580496] | 67.8 | 65.1 | 79 | 59.3 | 44.6 | 65.1 | 56.6 | 12 |  |  |  |  |  |  |  |  | 
CC(C)(C)NC(=O)N[C@H](C(=O)N1C[C@H]2[C@@H]([C@H]1C(=O)NC(CC1CCC1)C(=O)C(N)=O)C2(C)C)C(C)(C)C (some centres unmarked) [MMV1580497] |  |  |  |  |  |  |  |  | 88.1 | 89.4 | 98 | 76.8 | 98.5 | 93.6 | 87.9 | 94.6 | 
O=C(O)C[C@H]1CC[C@H](c2ccc(-c3ccc(Nc4ccc(C(F)(F)F)nc4)cn3)cc2)CC1 [MMV1580498] | 72.2 | 72.4 | 58.9 | 85.2 | 80.6 | 82.3 | 88.6 | 70.8 |  |  |  |  |  |  |  |  | 
